Data reported in paper PMC10040441 (Nature biomedical engineering, 2023).

Columns and labels:
[1] = target: amyloid-β (Aβ42) aggregates (Homo sapiens, UniProt P05067); experiment: fluorescence intensity binding assay with synthetic Aβ[…] aggregates
[2] = target: amyloid-β (Aβ40) aggregates (Homo sapiens, UniProt P05067); experiment: as above
Chain of amyloid-β (Aβ40) aggregates (P05067 672-711): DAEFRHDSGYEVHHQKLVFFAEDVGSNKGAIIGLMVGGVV

Chain of amyloid-β (Aβ42) aggregates (P05067 672-713): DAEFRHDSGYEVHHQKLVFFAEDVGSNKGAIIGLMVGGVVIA

Kd [1]: 78.9 ± 12.3 nM
Kd [2]: 43.7 ± 5.8 nM
Compound: CC1(C)C(/C=C/C2=C(c3ccc(CCC(=O)O)cc3)C(=C/C=C3/N(CCC[N+](C)(C)C)c4ccc(S(=O)(=O)O)cc4C3(C)C)/CCC2)=[N+](CCC[N+](C)(C)C)c2ccc(S(=O)(=O)O)cc21 [ZW800–1C]
